Reference: patent publication EP2423181A1, “Multitarget substituted biphenyl diol derivatives” (PROUS INSTITUTE FOR BIOMEDICAL RESEARCH S.A., priority 2010, dated 2012)
Where a name gives a salt, the structure may show the parent alone.

Columns and labels:
Src = molecular target: T1, Src (Homo sapiens, UniProt P12931); assay: Src protein tyrosine kinase inhibition (ELISA of Poly[Glu:Tyr-P]); type: biochemical; conditions: Src, at 10 µM; read-out: % Inhibition
T1 construct: host or cells: Sf9 insect cells
Protocol: Src protein tyrosine kinase activity was assessed in human recombinant insect Sf9 cells using as a substrate Poly(Glu:Tyr) at 10 µg/mL with preincubation and incubation times of 15 and 5 min, respectively, at 22°C in 50 mM HEPES, pH 7.4, 1 mM DTT, 20 mM MgCl2 and 0.2 mM Na3VO4. An ELISA quantitation method of Poly[Glu:Tyr-P] was employed (Farley, K et al. Anal Biochem, 1992, 203, 151-157). Table 4. Inhibition of Src at 10 µM

mice [1] = assay: Formalin test (antinociceptive activity); type: in vivo
Protocol: The chemical irritant formalin test is used as a chronic pain model in animals. The s.c. administration of formalin to the paw of a mouse produces a biphasic nociceptive behavioral response, an early response (0-5 min after injection) and a late response (20-30 min after injection) (Hunskaar, S., Fasmer, O.B., Hole, K. Formalin test in mice, a useful technique for evaluating mild analgesics. J Neurosci Methods, 1985 ;14(1):69-76).
Aspirine and paracetamol are included as external active references in early and late response. Table 12. Early and late response inhibition in the formalin test.

tumor melanoma B16-FO = assay: Tumor cell proliferation assay (alamarBlue); type: cell-based, murine; conditions: Mus musculus; tumor melanoma B16-FO; read-out: IC50
Protocol: (§1) Changes in cell proliferation were detected based on the ability of viable cells to cause alamarBlue® to change its oxidized (non-fluorescent, blue) to a reduced (fluorescent, red) form. The alamarBlue® reaction allows the quantification of cell proliferation and examination of the metabolic activity of viable cells. Test substances were examined for activity on the proliferation of human or murine tumor cell lines at assay concentrations from 0.01 to 100 µM.

[2] = Maximum Tolerated Dose after acute administration; conditions: mouse, in vivo, ip, mice
Protocol: The Maximum Tolerated Dose (MTD) in mice was determined for selected compounds. The protocol of the studies was in accordance with the standard guidelines for drug development: • (htp://dtp.nci.nih.gov/branches/btb/acute tox.html). Table 10. Maximum Tolerated Doses in mice after acute i.p. administration

mice [3] = assay: Hot plate test (analgesic activity); type: in vivo; conditions: 10 and 30 mg/kg i.p.
Protocol: The hot plate test was used as an animal model of thermally-induced pain. The inhibitory activity measured on the time licking and biting induced by temperature (30 sec max at 55°C) indicates analgesic effect. […] Table 13. Analgesic activity of example 1 in the hot plate test

[4] = molecular target: T2, Gonadotrophin-releasing hormone receptors (GnRH, LH-RH)R (Homo sapiens, UniProt P30968); assay: GnRH radioligand binding assay; conditions: GnRH radioligand binding, 10 µM; read-out: % Inhibition at 10 µM
T2 construct: expressed in transfected cells; host or cells: Chem-1 cells
T2 sequence (P30968 1-328): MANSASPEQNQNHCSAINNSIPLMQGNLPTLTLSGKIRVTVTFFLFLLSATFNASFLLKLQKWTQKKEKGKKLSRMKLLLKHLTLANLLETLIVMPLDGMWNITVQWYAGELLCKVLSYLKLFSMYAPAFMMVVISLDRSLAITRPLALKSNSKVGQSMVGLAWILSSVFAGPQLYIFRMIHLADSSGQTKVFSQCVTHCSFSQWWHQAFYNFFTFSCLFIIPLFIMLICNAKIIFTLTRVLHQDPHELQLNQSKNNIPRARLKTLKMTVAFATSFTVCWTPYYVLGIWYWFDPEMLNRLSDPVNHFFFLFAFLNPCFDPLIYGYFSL
Description: Gonadotrophin-releasing hormone receptors (GnRH, LH-RH)R are a family of G protein-coupled receptors for GnRH, which promotes the secretion of luteinizing hormone (LH) and follicle-stimulating hormone (FSH). The activation of this receptor promotes, through estrogen receptors (ER) located in the cytosol, an increase in gene transcription and activation of tumor suppressor genes, DNA repair, cell division and cell proliferation. GnRH agonists are useful in breast, prostate and ovarian cancer, endometriosis, melanoma, rheumatoid arthritis and Alzheimer's disease. Table 17 presents the results from radioligand binding studies for GnRH for selected compounds using human recombinant Chem-1 cells (Halmos G, Schally AV, Pinski J, Vadillo-Buenfill M, Groot K. Down regulation of pituitary receptors for luteinizing hormone-releasing hormone (LH-RH) in rats by LH-RH antagonist Cetrorelix. Prco Natl Acad Sci USA 1996;93(6):2398-2402). The specific and non specific ligands used were [^125l] [D-Trp^6]-LH-RH (0.05 nM) and [D-Trp^6]-LH-RH ([…]) and after 60 min of incubation at 25°C in a 50 mM HEPES, pH 7.5, 5 mM MgCl2, 1 mM CaCl2, and 0.2% BSA the activity was measured by radioligand binding. Table 17. GnRH radioligand binding assay

tumor breast MDA-MB-231 = assay: Tumor cell proliferation assay (alamarBlue); type: cell-based; conditions: Homo sapiens; tumor breast MDA-MB-231; read-out: IC50
Protocol: as §1

tumor liver Hep 3B = assay: Tumor cell proliferation assay (alamarBlue); type: cell-based; conditions: Homo sapiens, Hep3B; tumor liver Hep 3B; read-out: IC50
Protocol: as §1

tumor ovary OVCAR-3 = assay: Tumor cell proliferation assay (alamarBlue); type: cell-based; conditions: Homo sapiens; tumor ovary OVCAR-3; read-out: IC50
Protocol: as §1

tumor breast T-47D = assay: Tumor cell proliferation assay (alamarBlue); type: cell-based; conditions: Homo sapiens, T47D; tumor breast T-47D; read-out: IC50
Protocol: as §1

tumor lung A549 = assay: Tumor cell proliferation assay (alamarBlue); type: cell-based; conditions: Homo sapiens; tumor lung A549; read-out: IC50
Protocol: as §1

tumor liver HepG2 = assay: Tumor cell proliferation assay (alamarBlue); type: cell-based; conditions: Homo sapiens; tumor liver HepG2; read-out: IC50
Protocol: as §1

tumor colon HCT-116 = assay: Tumor cell proliferation assay (alamarBlue); type: cell-based; conditions: Homo sapiens; tumor colon HCT-116; read-out: IC50
Protocol: as §1

tumor prostate LNCaP-FGC = assay: Tumor cell proliferation assay (alamarBlue); type: cell-based; conditions: Homo sapiens; tumor prostate LNCaP-FGC; read-out: IC50
Protocol: as §1

tumor brain U-87 MG = assay: Tumor cell proliferation assay (alamarBlue); type: cell-based; conditions: Homo sapiens; tumor brain U-87 MG; read-out: IC50
Protocol: as §1

tumor leukaemia K562 = assay: Tumor cell proliferation assay (alamarBlue); type: cell-based; conditions: Homo sapiens; tumor leukaemia K562; read-out: IC50
Protocol: as §1

tumor breast MCF-7 = assay: Tumor cell proliferation assay (alamarBlue); type: cell-based; conditions: Homo sapiens, MCF7; tumor breast MCF-7; read-out: IC50
Protocol: as §1

NE Uptake = assay: Norepinephrine uptake inhibition; type: biochemical
SERT = molecular target: T3, SERT (Homo sapiens, UniProt P31645); assay: Serotonin transporter binding ([3H]imipramine)
T3 construct: expressed in transfected cells; host or cells: CHO cells
Protocol: (§2) Serotonin transporter (SERT) inhibitors increase extracellular concentrations of serotonin (5-HT) and amplify signals sent by serotonin neurons. Agents that block SERT have been studied for the treatment of several diseases including depression and anxiety. Inhibitors of monoamine transporters have been tested for NET (Pacholczyk, T. et al. Nature, 1991, 350, 350-354) and SERT (Tatsumi, M. et al. Eur J Pharmacol, 1999, 368, 277-283). Norepinephrine transport was assessed in human recombinant CHO cells using [^3H]nisoxetine as a ligand at 1 nM after 60 min of incubation at 22°C, and a scintillation method as a method of detection. Serotonine transport was assessed in human recombinant CHO cells using [^3H]imipramine as a ligand at 2 nM after 60 min of incubation at 22°C, and a scintillation counting as a method of detection.

NET = molecular target: T4, NET (Homo sapiens, UniProt P23975); assay: Norepinephrine transporter binding ([3H]nisoxetine)
T4 construct: expressed in transfected cells; host or cells: CHO cells
Protocol: as §2

5-HT Uptake = assay: Serotonin uptake inhibition in brain synaptosomes; type: biochemical, rat
Protocol: Inhibition of serotonin uptake has been tested in rat brain synaptosomes using [^3H]serotonin (0.2 µCi/ml) after 15 min of incubation at 37°C and measuring the incorporation of [^3H]serotonin into synaptosomes by scintillation counting (Perovic, S. and Muller, W.E.G. Arzneim-Forsch. Drug Res., 1995, 45, 1145-1148).

5-HT2A receptor = molecular target: T5, 5-HT2A receptor (Homo sapiens, UniProt P28223); assay: 5-HT2A receptor binding ([3H]ketanserin); conditions: 5-HT2A binding
T5 construct: expressed in transfected cells; host or cells: HEK-293 cells
Protocol: The 5-HT2A receptor belongs to the G-protein-coupled receptor (GPCR) target class linked to anxiety and depression. Using human recombinant HEK-293 cells, the binding of compounds of formula (I) to this receptor was determined. The ligand used was [^3H]ketanserin at 0.5 nM and the quantification of the activity was assessed by scintillation counting after 60 min at 22°C (Bonhaus, et al. Br J Pharmacol, 1995, 115, 622-628). Table 16. Inhibition of 5-HT2A binding

mice [5] = conditions: i.p. in mice, comparative antineoplastic agents; cited from earlier work

T4 sequence (P23975 whole entry): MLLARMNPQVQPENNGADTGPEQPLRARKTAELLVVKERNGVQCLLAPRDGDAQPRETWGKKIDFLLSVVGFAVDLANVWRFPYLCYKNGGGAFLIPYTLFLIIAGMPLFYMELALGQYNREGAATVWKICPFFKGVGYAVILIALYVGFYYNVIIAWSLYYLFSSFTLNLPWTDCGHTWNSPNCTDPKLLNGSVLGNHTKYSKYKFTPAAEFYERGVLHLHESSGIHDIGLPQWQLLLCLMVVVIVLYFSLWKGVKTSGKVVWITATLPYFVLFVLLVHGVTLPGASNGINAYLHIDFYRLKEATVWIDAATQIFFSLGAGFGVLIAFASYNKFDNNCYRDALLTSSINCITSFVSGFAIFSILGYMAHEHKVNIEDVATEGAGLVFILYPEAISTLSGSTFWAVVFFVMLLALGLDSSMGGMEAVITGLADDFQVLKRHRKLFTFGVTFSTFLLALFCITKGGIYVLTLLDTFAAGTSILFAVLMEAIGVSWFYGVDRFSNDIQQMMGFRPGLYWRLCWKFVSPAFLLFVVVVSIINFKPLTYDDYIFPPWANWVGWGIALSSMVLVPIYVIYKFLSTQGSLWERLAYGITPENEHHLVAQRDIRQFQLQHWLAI
T5 sequence (P28223 whole entry): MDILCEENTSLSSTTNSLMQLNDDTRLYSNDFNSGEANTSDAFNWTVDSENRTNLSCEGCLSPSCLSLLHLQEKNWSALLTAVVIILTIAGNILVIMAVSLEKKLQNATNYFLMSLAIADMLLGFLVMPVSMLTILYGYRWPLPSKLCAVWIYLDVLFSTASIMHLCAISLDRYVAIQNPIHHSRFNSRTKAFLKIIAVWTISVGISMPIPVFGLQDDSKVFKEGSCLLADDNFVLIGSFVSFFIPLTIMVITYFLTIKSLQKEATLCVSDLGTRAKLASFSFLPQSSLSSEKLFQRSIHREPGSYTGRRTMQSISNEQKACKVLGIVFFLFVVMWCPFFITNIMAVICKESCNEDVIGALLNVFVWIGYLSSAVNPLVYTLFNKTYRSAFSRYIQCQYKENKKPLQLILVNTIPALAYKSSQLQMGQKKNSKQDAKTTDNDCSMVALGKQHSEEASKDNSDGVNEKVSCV
T1 sequence (P12931 whole entry): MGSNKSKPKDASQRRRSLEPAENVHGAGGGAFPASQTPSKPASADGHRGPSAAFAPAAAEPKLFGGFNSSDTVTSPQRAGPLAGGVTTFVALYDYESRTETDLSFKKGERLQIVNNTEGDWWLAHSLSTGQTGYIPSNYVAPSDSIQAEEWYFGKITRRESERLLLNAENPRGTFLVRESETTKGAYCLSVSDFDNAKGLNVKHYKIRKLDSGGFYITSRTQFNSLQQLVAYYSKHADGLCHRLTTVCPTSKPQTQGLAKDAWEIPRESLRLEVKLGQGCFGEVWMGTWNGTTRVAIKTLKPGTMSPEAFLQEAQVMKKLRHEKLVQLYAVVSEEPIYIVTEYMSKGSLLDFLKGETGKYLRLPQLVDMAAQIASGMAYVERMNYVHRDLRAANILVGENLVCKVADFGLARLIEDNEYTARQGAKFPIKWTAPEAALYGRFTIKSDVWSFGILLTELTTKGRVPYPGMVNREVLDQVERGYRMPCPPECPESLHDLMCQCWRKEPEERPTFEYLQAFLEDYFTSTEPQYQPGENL
T3 sequence (P31645 whole entry): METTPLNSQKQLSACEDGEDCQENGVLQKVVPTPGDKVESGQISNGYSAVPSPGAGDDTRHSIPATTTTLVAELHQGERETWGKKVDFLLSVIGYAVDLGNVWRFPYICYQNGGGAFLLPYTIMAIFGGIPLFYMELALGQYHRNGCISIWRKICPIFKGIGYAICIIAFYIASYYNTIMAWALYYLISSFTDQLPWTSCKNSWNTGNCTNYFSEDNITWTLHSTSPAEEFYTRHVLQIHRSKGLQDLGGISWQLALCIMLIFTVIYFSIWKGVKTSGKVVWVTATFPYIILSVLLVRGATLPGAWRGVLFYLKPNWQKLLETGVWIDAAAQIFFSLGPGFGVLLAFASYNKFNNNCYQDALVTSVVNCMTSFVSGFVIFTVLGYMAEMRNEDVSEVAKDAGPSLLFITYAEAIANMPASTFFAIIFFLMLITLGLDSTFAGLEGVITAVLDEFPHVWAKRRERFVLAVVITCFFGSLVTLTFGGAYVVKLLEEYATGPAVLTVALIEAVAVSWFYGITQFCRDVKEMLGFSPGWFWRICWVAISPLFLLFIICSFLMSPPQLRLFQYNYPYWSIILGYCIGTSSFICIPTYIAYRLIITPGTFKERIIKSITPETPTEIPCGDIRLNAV

In the case of `C=CCc1ccc(OC)c(-c2cc(CC=C)ccc2OC(CCNC)c2ccccc2)c1.Cl` (stereo not drawn) [Example 2, 5,5'-Diallyl-2-methoxy-2'-[3-(methylamino)-1-phenylpropoxy]biphenyl hydrochloride], the inhibition at 10 µM (Src) is reported as 55%, the “antinociceptive activity in the formalin test” value (mice [1]; 30 mg/kg i.p, early and late phases, potency similar to morphine 10 mg/kg i.p.) is reported as “to a lesser extent” and the “antinociceptive activity in the formalin model” value (mice [1]; 10 and 30 mg/kg i.p, late phase) is reported as “dose-dependent antinociceptive activity”. The “Early Response” value (mice [1]; formalin test, dose 30 mg/Kg i.p., early response 0-5 min) was “inactive”, the “Late Response” value (mice [1]; formalin test, dose 30 mg/Kg i.p., late response 20-30 min) was “active” and the IC50 (tumor melanoma B16-FO) was 2300 nM. For the same compound, the MTD [2] was 50 mg/kg, the “antinociceptive activity in the hot plate test” value (mice [3]) was “Dose-dependent antinociceptive activity” and the inhibition at 10 µM [4] was 33%. It also gave an IC50 (tumor breast MDA-MB-231) of 2100 nM, an IC50 (tumor liver Hep 3B) of 3200 nM and an IC50 (tumor ovary OVCAR-3) of 2300 nM. For the same compound, the IC50 (tumor breast T-47D) was 12000 nM, the IC50 (tumor lung A549) was 1300 nM and the IC50 (tumor liver HepG2) was 3600 nM. It also gave an IC50 (tumor colon HCT-116) of 2100 nM, an IC50 (tumor prostate LNCaP-FGC) of 1800 nM and an IC50 (tumor brain U-87 MG) of 2200 nM. The IC50 (tumor leukaemia K562) was 4200 nM and the IC50 (tumor breast MCF-7) was 2600 nM.

For `C=CCc1ccc(OCC)c(-c2cc(CC=C)ccc2OC(CCNC)c2ccccc2)c1` (stereo not drawn) [Example 3, 5,5'-Diallyl-2-ethoxy-2'-[3-(methylamino)-1-phenylpropoxylbiphenyl hydrochloride], the “% Inhibition (5.0 µM) NE Uptake” value (NE Uptake) was 85%, the inhibition at 5 µM (SERT) was 73% and the inhibition at 5 µM (NET) was 87%. For the same compound, the “% Inhibition (5.0 µM) 5-HT Uptake” value (5-HT Uptake) was 52% and the inhibition at 5 µM (5-HT2A receptor) was 86%.

For `CC(=O)O[C@H]1C(=O)[C@@]2(C)[C@H]([C@H](OC(=O)c3ccccc3)[C@]3(O)C[C@H](OC(=O)[C@H](O)[C@@H](NC(=O)c4ccccc4)c4ccccc4)C(C)=C1C3(C)C)[C@]1(OC(C)=O)CO[C@@H]1C[C@@H]2O` [placlitaxel], the MTD (mice [5]) is given as 20 to 50 mg/kg.

For `N.N.[Cl][Pt][Cl]` [cisplatin], the MTD (mice [5]) is listed as 4 mg/kg.
